# PubChem BioAssay (NCI)
#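 Exposure lasted 48 hours, with cells grown in 96-well plates and compounds tested at five concentrations. GI50: concentration for 50% inhibition of growth. TGI: concentration producing complete growth inhibition.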
# Assays:
# Test in all cases: NCI anticancer screen, dose series, 48 h
# [1] = tested on: 786-0 renal
# [2] = tested on: A498 renal
# [3] = tested on: A549 NSCLC
# [4] = tested on: ACHN renal
# [5] = tested on: BT-549 breast
# [6] = tested on: CAKI-1 renal
# [7] = tested on: CCRF-CEM leukemia
# [8] = tested on: COLO 205 colon
# [9] = tested on: DU-145 prostate
# [10] = tested on: EKVX NSCLC
# [11] = tested on: HCC-2998 colon
# [12] = tested on: HCT-116 colon
# [13] = tested on: HCT-15 colon
# [14] = tested on: HL-60(TB) leukemia
# [15] = tested on: HOP-62 NSCLC
# [16] = tested on: HOP-92 NSCLC
# [17] = tested on: HS 578T breast
# [18] = tested on: HT29 colon
# [19] = tested on: IGROV1 ovarian
# [20] = tested on: K-562 leukemia
# [21] = tested on: KM12 colon
# [22] = tested on: LOX IMVI melanoma
# [23] = tested on: M14 melanoma
# [24] = tested on: MALME-3M melanoma
# [25] = tested on: MCF7 breast
# [26] = tested on: MDA-MB-231 breast
# [27] = tested on: MDA-MB-435
# [28] = tested on: MOLT-4 leukemia
# [29] = tested on: NCI-H23 lung
# [30] = tested on: NCI-H460 lung
# [31] = tested on: NCI-H522 lung
# [32] = tested on: NCI/ADR-RES ovarian
# [33] = tested on: OVCAR-3 ovarian
# [34] = tested on: OVCAR-4 ovarian
# [35] = tested on: OVCAR-5 ovarian
# [36] = tested on: OVCAR-8 ovarian
# [37] = tested on: PC-3 prostate
# [38] = tested on: RPMI-8226 leukemia
# [39] = tested on: RXF 393 renal
# [40] = tested on: SF-268 CNS
# [41] = tested on: SF-295 CNS
# [42] = tested on: SF-539 CNS
# [43] = tested on: SK-MEL-2 melanoma
# [44] = tested on: SK-MEL-28 melanoma
# [45] = tested on: SK-MEL-5 melanoma
# [46] = tested on: SN12C renal
# [47] = tested on: SNB-19 CNS
# [48] = tested on: SNB-75 CNS
# [49] = tested on: SR leukemia
# [50] = tested on: SW-620 colon
# [51] = tested on: T-47D breast
# [52] = tested on: TK-10 renal
# [53] = tested on: U251 CNS
# [54] = tested on: UACC-257 melanoma
# [55] = tested on: UACC-62 melanoma
# [56] = tested on: UO-31 renal
smiles,measurement,setting,value
CO[C@H]1/C=C/[C@@](C)(O)/C=C/C(=O)O[C@H](C)[C@@H](C)CC/C=C/1C,GI50,[1],16.8 µM
same,TGI,[1],34.3 µM
same,GI50,[2],12 µM
same,TGI,[2],32 µM
same,GI50,[3],23 µM
same,TGI,[3],> 100 µM
same,GI50,[4],18.7 µM
same,TGI,[4],55.9 µM
same,GI50,[5],19.8 µM
same,TGI,[5],63.6 µM
same,GI50,[6],21.1 µM
same,TGI,[6],69.7 µM
same,GI50,[7],10.1 µM
same,TGI,[7],> 100 µM
same,GI50,[8],20.6 µM
same,TGI,[8],47.8 µM
same,GI50,[9],22.4 µM
same,TGI,[9],71.8 µM
same,GI50,[10],15.7 µM
same,TGI,[10],76.8 µM
same,GI50,[11],15.6 µM
same,TGI,[11],30.7 µM
same,GI50,[12],12.9 µM
same,TGI,[12],26.2 µM
same,GI50,[13],7.35 µM
same,TGI,[13],22.5 µM
same,GI50,[14],22.7 µM
same,TGI,[14],54.5 µM
same,GI50,[15],16.3 µM
same,TGI,[15],59.2 µM
same,GI50,[16],7.62 µM
same,TGI,[16],26.1 µM
same,GI50,[17],23.9 µM
same,TGI,[17],> 100 µM
same,GI50,[18],19.4 µM
same,TGI,[18],48.7 µM
same,GI50,[19],17.2 µM
same,TGI,[19],62.3 µM
same,GI50,[20],15.2 µM
same,TGI,[20],> 100 µM
same,GI50,[21],15.8 µM
same,TGI,[21],41.2 µM
same,GI50,[22],11.3 µM
same,TGI,[22],26 µM
same,GI50,[23],15.7 µM
same,TGI,[23],43.3 µM
same,GI50,[24],13.1 µM
same,TGI,[24],37.3 µM
same,GI50,[25],16.5 µM
same,TGI,[25],56 µM
same,GI50,[26],14.5 µM
same,TGI,[26],45.1 µM
same,GI50,[27],23.1 µM
same,TGI,[27],83.1 µM
same,GI50,[28],21.2 µM
same,TGI,[28],98.6 µM
same,GI50,[29],14.8 µM
same,TGI,[29],32.4 µM
same,GI50,[30],17.4 µM
same,TGI,[30],48.6 µM
same,GI50,[31],15.2 µM
same,TGI,[31],36.4 µM
same,GI50,[32],15 µM
same,TGI,[32],40.5 µM
same,GI50,[33],11.3 µM
same,TGI,[33],29.4 µM
same,GI50,[34],14.9 µM
same,TGI,[34],76.3 µM
same,GI50,[35],17.7 µM
same,TGI,[35],39.2 µM
same,GI50,[36],26.9 µM
same,TGI,[36],> 100 µM
same,GI50,[37],18.2 µM
same,TGI,[37],53.7 µM
same,GI50,[38],15.5 µM
same,TGI,[38],97.3 µM
same,GI50,[39],11 µM
same,TGI,[39],24.5 µM
same,GI50,[40],19.7 µM
same,TGI,[40],> 100 µM
same,GI50,[41],16.5 µM
same,TGI,[41],39.8 µM
same,GI50,[42],15.2 µM
same,TGI,[42],31.3 µM
same,GI50,[43],23.6 µM
same,TGI,[43],63.5 µM
same,GI50,[44],16.9 µM
same,TGI,[44],42.6 µM
same,GI50,[45],14 µM
same,TGI,[45],28.4 µM
same,GI50,[46],17.6 µM
same,TGI,[46],59.2 µM
same,GI50,[47],21.9 µM
same,TGI,[47],81.8 µM
same,GI50,[48],17.5 µM
same,TGI,[48],40.4 µM
same,GI50,[49],15 µM
same,TGI,[49],> 100 µM
same,GI50,[50],15.1 µM
same,TGI,[50],35.7 µM
same,GI50,[51],14.1 µM
same,TGI,[51],> 100 µM
same,GI50,[52],19.7 µM
same,TGI,[52],88.4 µM
same,GI50,[53],14.2 µM
same,TGI,[53],40.6 µM
same,GI50,[54],26.7 µM
same,TGI,[54],87.3 µM
same,GI50,[55],13.8 µM
same,TGI,[55],30 µM
same,GI50,[56],8.38 µM
same,TGI,[56],21.1 µM
